The target of one experiment is c-Cbl (Homo sapiens (Human), UniProt P22681). Put plainly: C-Cbl LCK Ub TR-FRET assay (c-cbl Lck HTRF). The format is biochemical. Particulars: for (fold-selectivity): C-cbl Lck HTRF IC50 relative to Cbl-b Lck HTRF IC50. A digest of the protocol: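 After the ubiquitination reaction, detection mixture was added and plates incubated 20 min at room temperature before reading. IC50 values were calculated with wells lacking LCK as the low control and DMSO as the high control.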
Sequence of c-Cbl (P22681 47-435): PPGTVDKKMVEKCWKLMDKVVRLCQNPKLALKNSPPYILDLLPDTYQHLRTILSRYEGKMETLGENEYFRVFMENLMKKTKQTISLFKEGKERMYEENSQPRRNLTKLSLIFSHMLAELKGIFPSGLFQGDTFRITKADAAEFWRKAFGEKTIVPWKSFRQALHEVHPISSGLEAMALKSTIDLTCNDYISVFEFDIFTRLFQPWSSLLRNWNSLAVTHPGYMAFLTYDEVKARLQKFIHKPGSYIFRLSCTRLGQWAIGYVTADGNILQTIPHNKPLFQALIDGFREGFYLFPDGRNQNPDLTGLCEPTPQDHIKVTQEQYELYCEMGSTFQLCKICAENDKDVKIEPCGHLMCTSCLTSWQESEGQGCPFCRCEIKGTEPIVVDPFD

The next experiment has as its target Cbl-b (Homo sapiens (Human), UniProt Q13191). Put plainly: Cbl-b LCK Ub TR-FRET assay (Cbl-b Lck HTRF). The format is biochemical. A digest of the protocol:
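TR-FRET (340 nm excitation, 615/665 nm emission) read after adding HA-ubiquitin–UBE2D2 thioester, anti-HA-D2 and streptavidin-Eu. Beforehand, compounds incubated 60 min with biotinylated Cbl-b, then 90 min with His-LCK and ATP (1 mM in 2× mix); IC50 from 10 concentrations, DMSO high and no-LCK low controls.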

Molecules are shown by their SMILES. pIC50: −log10 of the molar value. Where a name gives a salt, the structure may show the parent alone.

Sequence of Cbl-b (Q13191 40-426): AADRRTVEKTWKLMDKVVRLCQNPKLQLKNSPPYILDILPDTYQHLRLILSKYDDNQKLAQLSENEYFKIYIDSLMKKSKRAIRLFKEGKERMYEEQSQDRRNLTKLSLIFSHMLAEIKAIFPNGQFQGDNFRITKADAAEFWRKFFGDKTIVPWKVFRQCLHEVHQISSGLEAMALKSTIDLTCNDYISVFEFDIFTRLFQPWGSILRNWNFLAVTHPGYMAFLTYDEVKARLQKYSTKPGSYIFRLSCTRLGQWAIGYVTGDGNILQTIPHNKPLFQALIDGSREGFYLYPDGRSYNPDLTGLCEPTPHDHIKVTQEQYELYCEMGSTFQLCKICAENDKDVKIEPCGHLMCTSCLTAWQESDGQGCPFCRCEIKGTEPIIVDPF

As for `Cc1cnnn1CC1(c2cccc(N3Cc4c(cc(CN5CCN(C)C[C@@H]5C(C)C)cc4C(F)(F)F)C3=O)c2)COC1` [Compound 222, (S)-6-((2-Isopropyl-4-methylpiperazin-1-yl)methyl)-2-(3-(3-((5-methyl-1H-1,2,3-triazol-1-yl)methyl)oxetan-3-yl)phenyl)-4-(trifluoromethyl)isoindolin-1-one], on c-Cbl, the pIC50 is 7.59 and the “(fold-selectivity)” value came to 1.2x. The molecule further gave a pIC50 on Cbl-b of 7.66.
For `CC(C)[C@H]1CN(C)CCN1Cc1cc2c(c(C(F)(F)F)c1)CN(c1cccc(C3([C@@H](F)c4nncn4C4CCCCC4)COC3)c1)C2=O` [Compound 454, 2-(3-(3-((R)-(4-cyclohexyl-4H-1,2,4-triazol-3-yl)fluoromethyl)oxetan-3-yl)phenyl)-6-(((S)-2-isopropyl-4-methylpiperazin-1-yl)methyl)-4-(trifluoromethyl)isoindolin-1-one], on c-Cbl, the pIC50 is 5.21 and the “(fold-selectivity)” value is listed as “(0.57x)”. This molecule also had a pIC50 on Cbl-b of 4.96.
Taken in the same sequence, the figures for `CC(C)[C@@H]1CN(Cc2cc3c(c(C(F)(F)F)c2)CN(c2cccc(C4(Cc5nncn5C)CC(F)(F)C4)c2)C3=O)CCN1C` [Compound 438, (R)-2-(3-(3,3-difluoro-1-((4-methyl-4H-1,2,4-triazol-3-yl)methyl)cyclobutyl)phenyl)-6-((3-isopropyl-4-methylpiperazin-1-yl)methyl)-4-(trifluoromethyl)isoindolin-1-one] were 7.49, “(0.80x)” and 7.39.
Taken in the same sequence, the figures for `Cn1cnnc1[C@@H](F)C1(c2cccc(N3Cc4c(cc(CN5CCC[C@@H](CO)C5)cc4C(F)(F)F)C3=O)c2)COC1` [Compound 152, 2-(3-(3-((S)-fluoro(4-methyl-4R-1,2,4-triazol-3-yl)methyl)oxetan-3-yl)phenyl)-6-(((R)-3-(hydroxymethyl)piperidin-1-yl)methyl)-4-(trifluoromethyl)isoindolin-1-one] were 6.55, 1.3x and 6.66.
Taken in the same sequence, the figures for `Cn1cnnc1CC1(c2cc(NCCc3c[nH]c4ccccc34)nc(N3Cc4c(cc(CNC5(C)CCC5)cc4C(F)(F)F)C3=O)c2)CCC1` [Compound 316, 2-(6-((2-(1H-indol-3-yl)ethyl)amino)-4-(1-((4-methyl-4H-1,2,4-triazol-3-yl)methyl)cyclobutyl)pyridin-2-yl)-6-(((1-methylcyclobutyl)amino)methyl)-4-(trifluoromethyl)isoindolin-1-one] were 7.70, “(1.2x)” and 7.80.
On to `Cn1cnnc1CC1(c2cc(Cl)nc(N3Cc4c(cc(CNC5(C)CCC5)cc4C(F)(F)F)C3=O)c2)CCC1` [Compound 351, 2-(6-chloro-4-(1-((4-methyl-4H-1,2,4-triazol-3-yl)methyl)cyclobutyl)pyridin-2-yl)-6-(((1-methylcyclobutyl)amino)methyl)-4-(trifluoromethyl)isoindolin-1-one formate], for which the pIC50 on c-Cbl was 7.72; on Cbl-b it was 7.48.
Turning to `Cn1cnnc1[C@H](F)C1(c2cccc(N3Cc4c(cc(CNC5CCC5)cc4C(F)(F)F)C3=O)c2)COC1` [Compound 227, (R)-6-((Cyclobutylamino)methyl)-2-(3-(3-(fluoro(4-methyl-4H-1,2,4-triazol-3-yl)methyl)oxetan-3-yl)phenyl)-4-(trifluoromethyl)isoindolin-1-one formate], the pIC50 against c-Cbl was 7.89; on Cbl-b it was 7.80.
For `COCC1CCN(Cc2cc3c(c(C(F)(F)F)c2)CN(c2cccc(C4([C@@H](F)c5nncn5C)COC4)c2)C3=O)CC1` [Compound 145, (R)-2-(3-(3-(fluoro(4-methyl-4H-1,2,4-triazol-3-yl)methyl)oxetan-3-yl)phenyl)-6-((4-(methoxymethyl)piperidin-1-yl)methyl)-4-(trifluoromethyl)isoindolin-1-one], on c-Cbl, the pIC50 was 6.74 and the “(fold-selectivity)” value is 1.4x. The same molecule showed a pIC50 against Cbl-b of 6.89.
Taken in the same sequence, the figures for `Cn1cnnc1C[C@]1(c2cccc(N3Cc4c(cccc4C(F)(F)F)C3=O)c2)C[C@@H](F)C1` [Compound 99, 2-(3-((1s,3r)-3-fluoro-1-((4-methyl-4H-1,2,4-triazol-3-yl)methyl)cyclobutyl)phenyl)-4-(trifluoromethyl)isoindolin-1-one] were 6.47, 2.0x and 6.77.
For `Cn1cnnc1[C@H](F)C1(c2cccc(N3Cc4c(cc(CN5CCC(C)(O)CC5)cc4C(F)(F)F)C3=O)c2)COC1` [Compound 141, (R)-2-(3-(3-(fluoro(4-methyl-4H-1,2,4-triazol-3-yl)methyl)oxetan-3-yl)phenyl)-6-((4-hydroxy-4-methylpiperidin-1-yl)methyl)-4-(trifluoromethyl)isoindolin-1-one], in that order: 6.92, 1.3x and 7.04.
Take `Cn1cnnc1CC1(c2cc(NC3CC=CC3)nc(N3Cc4c(cccc4C(F)(F)F)C3=O)c2)COC1` [Compound 484, 2-(6-(cyclopent-3-en-1-ylamino)-4-(3-((4-methyl-4H-1,2,4-triazol-3-yl)methyl)oxetan-3-yl)pyridin-2-yl)-4-(trifluoromethyl)isoindolin-1-one]: at c-Cbl, the pIC50 was 5.92 and the “(fold-selectivity)” value is listed as “(4.8x)”. The pIC50 on Cbl-b was 6.64.
Consider `CCCCc1cc(C2(Cc3nncn3C)CCC2)cc(N2Cc3c(cc(CNC4(C)CCC4)cc3C(F)(F)F)C2=O)n1` [Compound 346, 2-(6-butyl-4-(1-((4-methyl-4H-1,2,4-triazol-3-yl)methyl)cyclobutyl)pyridin-2-yl)-6-(((1-methylcyclobutyl)amino)methyl)-4-(trifluoromethyl)isoindolin-1-one], for which, on c-Cbl, the pIC50 was 8.00 and the “(fold-selectivity)” value is reported as “(0.92x)”. This molecule also gave a pIC50 against Cbl-b of 7.96.
For `Cn1cnnc1CC1(c2cc(OC3CCCC3)cc(N3Cc4c(cc(CNC5(C)CCC5)cc4C(F)(F)F)C3=O)c2)CC(F)(F)C1` [Compound 478, 2-(3-(cyclopentyloxy)-5-(3,3-difluoro-1-((4-methyl-4H-1,2,4-triazol-3-yl)methyl)cyclobutyl)phenyl)-6-(((1-methylcyclobutyl)amino)methyl)-4-(trifluoromethyl)isoindolin-1-one], in that order: 6.80, “(2.0x)” and 7.09.
Regarding `Cn1cnnc1[C@H](F)C1(c2cccc(N3Cc4c(I)cccc4C3=O)c2)COC1` [Compound 205, (R)-2-(3-(3-(fluoro(4-methyl-4H-1,2,4-triazol-3-yl)methyl)oxetan-3-yl)phenyl)-4-iodoisoindolin-1-one], on c-Cbl, the pIC50 is 6.11 and the “(fold-selectivity)” value was found to be 2.7x. This molecule also showed a pIC50 on Cbl-b of 6.54.
On to `Cn1cnnc1[C@@H](F)C1(c2cccc(N3Cc4c(cc(CN5CCCC5)cc4C(F)(F)F)C3=O)c2)CC(F)(F)C1` [Compound 396, (S)-2-(3-(3,3-difluoro-1-(fluoro(4-methyl-4H-1,2,4-triazol-3-yl)methyl)cyclobutyl)phenyl)-6-(pyrrolidin-1-ylmethyl)-4-(trifluoromethyl)isoindolin-1-one], for which, on c-Cbl, the pIC50 is 6.82 and the “(fold-selectivity)” value is given as “(1.3x)”. On Cbl-b, this molecule showed a pIC50 of 6.92.
Taken in the same sequence, the figures for `CC(C)Nc1cc(N2Cc3c(cc(CNC4(C)CCC4)cc3C(F)(F)F)C2=O)cc(C2(Cc3nncn3C)CCC2)c1` [Compound 462, 2-(3-(isopropylamino)-5-(1-((4-methyl-4H-1,2,4-triazol-3-yl)methyl)cyclobutyl)phenyl)-6-(((1-methylcyclobutyl)amino)methyl)-4-(trifluoromethyl)isoindolin-1-one] were 8.10, “(0.95x)” and 8.08.
On to `Cn1cnnc1CC1(c2cccc(N3Cc4c(cc(CNC5CCCC5)cc4C(F)(F)F)C3=O)c2)CC(F)(F)C1` [Compound 364, 6-((cyclopentylamino)methyl)-2-(3-(3,3-difluoro-1-((4-methyl-4H-1,2,4-triazol-3-yl)methyl)cyclobutyl)phenyl)-4-(trifluoromethyl)isoindolin-1-one], for which the pIC50 at c-Cbl was 8.01; against Cbl-b, 7.82. Further, the “(fold-selectivity)” value on c-Cbl is on record as “(0.63x)”.
Turning to `Cn1cnnc1CC1(c2cc(NCC3CC3)nc(N3Cc4c(cc(CNC5(C)CCC5)cc4C(F)(F)F)C3=O)c2)CCC1` [Compound 238, 2-(6-((cyclopropylmethyl)amino)-4-(1-((4-methyl-4H-1,2,4-triazol-3-yl)methyl)cyclobutyl)pyridin-2-yl)-6-(((1-methylcyclobutyl)amino)methyl)-4-(trifluoromethyl)-isoindolin-1-one], on c-Cbl, the pIC50 was 7.96 and the “(fold-selectivity)” value is given as “(1.0x)”. Further, the pIC50 against Cbl-b was 7.96.
`CN1CCN(Cc2cc3c(c(C(F)(F)F)c2)CN(c2cccc(C4(Cc5nncn5C)CC(F)(F)C4)c2)C3=O)C(=O)C1` [Compound 444, 2-(3-(3,3-difluoro-1-((4-methyl-4H-1,2,4-triazol-3-yl)methyl)cyclobutyl)phenyl)-6-((4-methyl-2-oxopiperazin-1-yl)methyl)-4-(trifluoromethyl)isoindolin-1-one]: on c-Cbl, the pIC50 was 6.74 and the “(fold-selectivity)” value is recorded as “(1.1x)”. Also, the pIC50 on Cbl-b was 6.77.
For `Cn1cnnc1CC1(c2cc(NCCC#N)nc(N3Cc4c(cc(CNC5(C)CCC5)cc4C(F)(F)F)C3=O)c2)CCC1` [Compound 308, 3-((4-(1-((4-methyl-4H-1,2,4-triazol-3-yl)methyl)cyclobutyl)-6-(6-(((1-methylcyclobutyl)amino)methyl)-1-oxo-4-(trifluoromethyl)isoindolin-2-yl)pyridin-2-yl)amino)propanenitrile], the pIC50 is 8.12 at c-Cbl and 7.92 against Cbl-b. Also, on c-Cbl, the “(fold-selectivity)” value was “(0.63x)”.

A word on the pIC50: it is −log10 of the IC50, conventionally taken in molar units. Read a high pIC50 as a low IC50.

For the origin of these results see patent publication US20250230147A1, “LACTAMS AS CBL-B INHIBITORS” (Genentech, Inc., priority 2021, published 2025).
